The target in the experiment is T1, Recombinant human mPGES-1 (Homo sapiens, UniProt O14684).
T1 construct: made in house; host or cells: CHO cells
T1 sequence (O14684 1-152): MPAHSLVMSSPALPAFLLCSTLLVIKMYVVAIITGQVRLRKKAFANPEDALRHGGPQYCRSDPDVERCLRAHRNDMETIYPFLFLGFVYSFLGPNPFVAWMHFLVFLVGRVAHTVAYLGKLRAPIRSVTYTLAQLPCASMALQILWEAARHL
The experiment can be described thus: In-vitro mPGES-1 inhibitor screening (inhibition of PGE2 formation from PGH2, HTRF detection). It counts as biochemical. The settings on record: for inhibition at 1 µM: 1 μM test compound, read-out: Percentage inhibition at 1 μM; for inhibition at 1 µM / inhibition at 10 µM: crude microsomal fraction, 15 μM PGH2; for inhibition at 10 µM: 10 μM test compound, read-out: Percentage inhibition at 10 μM; for IC50: class symbol, concentration response curve. From the text:
In-Vitro Protocol for Screening of mPGES-1 Inhibitors:
mPGES-1 (microsomal prostaglandin E synthase-1) is a microsomal enzyme that converts endoperoxide substrate PGH2 (prostaglandin H2) to product PGE2 (prostaglandin E2) by isomerization in the presence of reduced glutathione (GSH). mPGES-1 inhibitors were screened by assessing their ability to inhibit formation of PGE2 from PGH2 in presence of mPGES-1 using an anti-PGE2 antibody based detection method. Recombinant human mPGES-1 was generated in-house by expression in CHO cells (Ouellet M et al. (2002), Protein Expression and Purification 26: 489-495). The assay was set up using crude microsomal fractions at protein concentration of 40-60 μg/mL. Test compounds were prepared in 100% dimethyl sulfoxide (DMSO) to obtain 20 mM stock solution and then diluted using assay buffer comprising 0.1 M Potassium phosphate buffer with 2 mM EDTA. The final concentration of DMSO in reaction was 0.5% (v/v). Negative controls were comprised of all assay reagents except the enzyme. Positive controls were comprised of the enzyme reaction in the absence of any inhibitor. Test compounds were incubated for 10 minutes in assay buffer containing 2.5 mM GSH and mPGES-1 enzyme followed by addition of PGH2 at a concentration of 15 μM for 1 minute. The reaction was stopped by addition of Stannous chloride (11 mg/ml) and PGE2 levels were measured (Masse F et al. (2005), Journal of Biomolecular Screening 10(6) 599-605., Goedken R E et al. (2008), Journal of Biomolecular Screening 13(7): 619-625) by HTRF kit (CisBio)).
Inhibition of mPGES-1 enzyme activity was measured using the percent of reaction occurring in the positive control. Concentration response curves were plotted using percent inhibition of maximum enzyme reaction. The IC50 value was calculated from the concentration response curve by nonlinear regression analysis using GraphPad PRISM software.
Background: Time-resolved FRET reads energy transfer from a long-lived donor to a nearby acceptor.

Here are results for 10 compounds from patent publication US9006257B2, “Bicyclic compounds as mPGES-1 inhibitors” (Glenmark Pharmaceuticals S.A., priority 2012, dated 2015).

As to `CC(C)(C)C(=O)NCc1ccc(Cl)c(C(=O)Nc2cccc3c(Nc4cccc(C(F)(F)F)c4)nccc23)c1F` [Example-1, 6-Chloro-2-fluoro-3-(pivalamidomethyl)-N-(1-((3-(trifluoromethyl)phenyl)amino)isoquinolin-5-yl)benzamide], the inhibition at 1 µM came out at 95.2%, the inhibition at 10 µM came out at 96.7% and the half-inhibitory concentration (IC50) is < 50 nM.

`CC(C)(C)C(=O)NCc1ccc(Cl)c(C(=O)Nc2cccc3c(Nc4cccc(C(F)(F)F)c4)nccc23)n1` [Example-2, 3-Chloro-6-(pivalamidomethyl)-N-(1-((3-(trifluoromethyl)phenyl)amino)isoquinolin-5-yl)picolinamide]: the inhibition at 1 µM turned out to be 95.8%, the inhibition at 10 µM was found to be 97.2% and the IC50 was < 50 nM.

Take `Cc1ccc(CNC(=O)C(C)(C)C)c(C)c1C(=O)Nc1cccc2c(Nc3cccc(C(F)(F)F)c3)nccc12` [Example-3, 2,6-Dimethyl-3-(pivalamidomethyl)-N-(1-((3-(trifluoromethyl)phenyl)amino)isoquinolin-5-yl)benzamide]: the inhibition at 1 µM stood at 96%, the inhibition at 10 µM worked out at 98.1% and the 50% inhibitory concentration (IC50) was < 50 nM.

Regarding `CC(C)(C)C(=O)NCc1ccc(Cl)c(C(=O)Nc2cccc3c(Nc4cccc(C(F)(F)F)c4)nccc23)c1` [Example-4, 2-Chloro-5-(pivalamidomethyl)-N-(1-((3-(trifluoromethyl)phenyl)amino)isoquinolin-5-yl)benzamide], the inhibition at 1 µM is 98.6%, the inhibition at 10 µM was 99.8% and the half-maximal inhibitory concentration (IC50) was < 50 nM.

As for `CC(C)(C)C(=O)NCc1ccc(Cl)c(C(=O)Nc2cccc3c(Oc4cccc(C(F)(F)F)c4)nccc23)c1F` [Example-5, 6-Chloro-2-fluoro-3-(pivalamidomethyl)-N-(1-(3-(trifluoromethyl)phenoxy)isoquinolin-5-yl)benzamide], the inhibition at 1 µM turned out to be 99.5%, the inhibition at 10 µM was 98.5% and the IC50 is < 50 nM.

On to `CC(C)(C)C(=O)NCc1ccc(Cl)c(C(=O)Nc2cccc3c(Oc4cccc(C(F)(F)F)c4)nccc23)n1` [Example-6, 3-Chloro-6-(pivalamidomethyl)-N-(1-(3-(trifluoromethyl)phenoxy)isoquinolin-5-yl)picolinamide], for which the inhibition at 1 µM was 93%, the inhibition at 10 µM turned out to be 95.9% and the IC50 was 50 to 100 nM.

As for `CC(C)(C)C(=O)NCc1ccc(Cl)c(C(=O)Nc2cccc3c(Oc4cccc(C(F)(F)F)c4)nccc23)c1` [Example-7, 2-Chloro-5-(pivalamidomethyl)-N-(1-(3-(trifluoromethyl)phenoxy)isoquinolin-5-yl)benzamide], the inhibition at 1 µM came to 100%, the inhibition at 10 µM amounted to 96.7% and the IC50 was < 50 nM.

With `CC(C)(C)C(=O)NCc1ccc(Cl)c(C(=O)Nc2cccc3c(Nc4cccc(C(F)(F)F)c4)ncnc23)n1` [Example-8, 3-Chloro-6-(pivalamidomethyl)-N-(4-((3-(trifluoromethyl)phenyl)amino)quinazolin-8-yl)picolinamide], the inhibition at 1 µM was 99%, the inhibition at 10 µM stood at 98% and the IC50 is < 50 nM.

`CC(C)(C)C(=O)NCc1ccc(Cl)c(C(=O)Nc2cccc3c(Oc4cccc(C(F)(F)F)c4)ncnc23)n1` [Example-9, 3-Chloro-6-(pivalamidomethyl)-N-(4-(3-(trifluoromethyl)phenoxy)quinazolin-8-yl)picolinamide]: the inhibition at 1 µM was 99.1%, the inhibition at 10 µM worked out at 100% and the IC50 is < 50 nM.

With `CC(C)(C)C(=O)NCc1ccc(Cl)c(C(=O)Nc2cccc3c(Oc4cccc(C(F)(F)F)c4)ncnc23)c1` [Example-10, 2-Chloro-5-(pivalamidomethyl)-N-(4-(3-(trifluoromethyl)phenoxy)quinazolin-8-yl)benzamide], the inhibition at 1 µM was 99.7%, the inhibition at 10 µM was found to be 98.9% and the IC50 is < 50 nM.

Usually inhibition stands for the share of the control response that was lost under treatment. The IC50 is the concentration needed to halve the response being measured.
